# Measurements from patent US10640547B2, “Immunotherapy against melanoma and other cancers” (IMMATICS BIOTECHNOLOGIES GMBH, priority 2016, dated 2020).
# Molecular target: HLA-A*02:01 (Homo sapiens, UniProt P04439, D140Y/D185E/D98H/E176V/E277Q/G131W/G231S/I119V/I121R/I166T/I218V/L300P/L318F/N151K/N90K/P208A/P217A/Q86G/Q94H/R138H/R169H/T345S)
# Assay: MHC binding assay (UV-ligand exchange, β2m ELISA)
# Details: MHC class I binding score; binding to HLA-A*02:01 ranged by peptide exchange yield (UV-ligand exchange, β2m ELISA)
# Summary of the method: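 UV-cleavable peptide in HLA monomers exchanged for test peptide by UV irradiation; exchange yield measured by streptavidin-capture ELISA with HRP anti-β2m (TMB, 450 nm) on 100-fold diluted complexes. Quantified against refolded HLA-A*02:01/MLA-001 standards (15-500 ng/ml).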
row,Peptide exchange,Substance
1,++ (>20% = ++),170 (KLKEAVEAI; listed as Homo sapiens) [compound 170]
2,++++ (>75% = ++++),78 (ALKDLVNLI; listed as Homo sapiens) [compound 78]
3,++++ (>75% = ++++),216 (TLLHFLAEL; listed as Homo sapiens) [compound 216]
4,++++ (>75% = ++++),58 (ILGDWSIQV; listed as Homo sapiens) [compound 58]
5,+++ (>50 = +++),200 (LLEEINHFL; listed as Homo sapiens) [compound 200]
6,+++ (>50 = +++),145 (TLPNIYVTL; listed as Homo sapiens) [compound 145]
7,++++ (>75% = ++++),123 (LLGEGIPSA; listed as Homo sapiens) [compound 123]
8,+++ (>50 = +++),196 (ALEPIDITV; listed as Homo sapiens) [compound 196]
9,++ (>20% = ++),164 (ALFFQLVDV; listed as Homo sapiens) [compound 164]
10,+++ (>50 = +++),32 (GLDIITNKV; listed as Homo sapiens) [compound 32]
11,++++ (>75% = ++++),151 (FLGEPASYLYL; listed as Homo sapiens) [compound 151]
12,+++ (>50 = +++),174 (TLLEGLTEL; listed as Homo sapiens) [compound 174]
13,+++ (>50 = +++),83 (GLDKVITVL; listed as Homo sapiens) [compound 83]
14,+++ (>50 = +++),115 (YIDDVFMGL; listed as Homo sapiens) [compound 115]
15,++++ (>75% = ++++),85 (GLLDVMYQV; listed as Homo sapiens) [compound 85]
16,+++ (>50 = +++),76 (QIDSIHLLL; listed as Homo sapiens) [compound 76]
17,+++ (>50 = +++),81 (FLDDGNQML; listed as Homo sapiens) [compound 81]
18,++ (>20% = ++),87 (IIDPPLHGQLL; listed as Homo sapiens) [compound 87]
19,+++ (>50 = +++),138 (YLDKTFYNL; listed as Homo sapiens) [compound 138]
20,++++ (>75% = ++++),150 (KLFPSPLQTL; listed as Homo sapiens) [compound 150]
21,++++ (>75% = ++++),72 (TLLEVDAIVNA; listed as Homo sapiens) [compound 72]
22,++++ (>75% = ++++),22 (KLLELQELVL; listed as Homo sapiens) [compound 22]
23,+ (>10% = +),74 (GTIPLIESL; listed as Homo sapiens) [compound 74]
24,++ (>20% = ++),59 (IIDDVMKEL; listed as Homo sapiens) [compound 59]
25,+++ (>50 = +++),28 (IVDNTTMQL; listed as Homo sapiens) [compound 28]
26,+++ (>50 = +++),19 (VLAVLGAVVAV; listed as Homo sapiens) [compound 19]
27,++++ (>75% = ++++),167 (KVLGDVIEV; listed as Homo sapiens) [compound 167]
28,++++ (>75% = ++++),165 (ALIEVLQPLI; listed as Homo sapiens) [compound 165]
29,++++ (>75% = ++++),48 (HLIGWTAFL; listed as Homo sapiens) [compound 48]

# System: CD8+ T cells
# Assay: In vitro immunogenicity: T-cell priming with artificial APCs loaded with peptide/MHC and anti-CD28, pMHC multimer readout
# Type: cell-based, human
# Details: Table 10A; HLA class I peptides
# Excerpt: In order to obtain information regarding the immunogenicity of the TUMAPs of the present invention, the inventors performed investigations using an in vitro T-cell priming assay based on repeated stimulations of CD8+ T cells with artificial antigen presenting cells (aAPCs) loaded with peptide/MHC complexes and anti-CD28 antibody.
# In order to perform in vitro stimulations by artificial antigen presenting cells loaded with peptide-MHC complex (pMHC) and anti-CD28 antibody, the inventors first isolated CD8+ T cells from fresh HLA-A*02 leukapheresis products via positive selection using CD8 microbeads (Miltenyi Biotec, Bergisch-Gladbach, Germany) of healthy donors obtained from the University clinics Mannheim, Germany, after informed consent.
# PBMCs and isolated CD8+ lymphocytes were incubated in T-cell medium (TCM) until use consisting of RPMI-Glutamax (Invitrogen, Karlsruhe, Germany) supplemented with 10% heat inactivated human AB serum (PAN-Biotech, Aidenbach, Germany), 100 U/ml Penicillin/100 μg/ml Streptomycin (Cambrex, Cologne, Germany), 1 mM sodium pyruvate (CC Pro, Oberdorla, Germany), 20 μg/ml Gentamycin (Cambrex). 2.5 ng/ml IL-7 (PromoCell, Heidelberg, Germany) and 10 U/ml IL-2 (Novartis Pharma, Nürnberg, Germany) were also added to the TCM at this step.
# Generation of pMHC/anti-CD28 coated beads, T-cell stimulations and readout was performed in a highly defined in vitro system using four different pMHC molecules per stimulation condition and 8 different pMHC molecules per readout condition.
# The purified co-stimulatory mouse IgG2a anti human CD28 Ab 9.3 (Jung et al., 1987) was chemically biotinylated using Sulfo-N-hydroxysuccinimidobiotin as recommended by the manufacturer (Perbio, Bonn, Germany). Beads used were 5.6 μm diameter streptavidin coated polystyrene particles (Bangs Laboratories, Illinois, USA).
# 800.000 beads/200 μl were coated in 96-well plates in the presence of 4×12.5 ng different biotin-pMHC, washed and 600 ng biotin anti-CD28 were added subsequently in a volume of 200 μl. Stimulations were initiated in 96-well plates by co-incubating 1×10^6 CD8+ T cells with 2×10^5 washed coated beads in 200 μl TCM supplemented with 5 ng/ml IL-12 (PromoCell) for 3 days at 37° C. Half of the medium was then exchanged by fresh TCM supplemented with 80 U/ml IL-2 and incubating was continued for 4 days at 37° C. This stimulation cycle was performed for a total of three times. For the pMHC multimer readout using 8 different pMHC molecules per condition, a two-dimensional combinatorial coding approach was used as previously described (Andersen et al., 2012) with minor modifications encompassing coupling to 5 different fluorochromes. Finally, multimeric analyses were performed by staining the cells with Live/dead near IR dye (Invitrogen, Karlsruhe, Germany), CD8-FITC antibody clone SK1 (BD, Heidelberg, Germany) and fluorescent pMHC multimers. For analysis, a BD LSRII SORP cytometer equipped with appropriate lasers and filters was used. Peptide specific cells were calculated as percentage of total CD8+ cells. Evaluation of multimeric analysis was done using the FlowJo software (Tree Star, Oregon, USA). In vitro priming of specific multimer+CD8+ lymphocytes was detected by comparing to negative control stimulations.
Substance,Donors (in vitro immunogenicity),Wells (in vitro immunogenicity)
238 (KLLDKPEQFL; listed as Homo sapiens) [compound 238],++ (20%-49% = ++),+ (<20% = +)
257 (VLLNEILEQV; listed as Homo sapiens) [compound 257],++++ (≥70% = ++++),++ (20%-49% = ++)
318 (SIIEYLPTL; listed as Homo sapiens) [compound 318],++++ (≥70% = ++++),+ (<20% = +)
247 (ALLNAILHSA; listed as Homo sapiens) [compound 247],++++ (≥70% = ++++),+ (<20% = +)
326 (ALSGTLSGV; listed as Homo sapiens) [compound 326],++++ (≥70% = ++++),+ (<20% = +)
323 (VVDKTLLLV; listed as Homo sapiens) [compound 323],++++ (≥70% = ++++),+++ (50%-69% = +++)
322 (SLHFLILYV; listed as Homo sapiens) [compound 322],+++ (50%-69% = +++),++ (20%-49% = ++)
248 (GLFAGLGGAGA; listed as Homo sapiens) [compound 248],++++ (≥70% = ++++),+ (<20% = +)
298 (KLQEEIPVL; listed as Homo sapiens) [compound 298],++++ (≥70% = ++++),+ (<20% = +)
321 (YLPTFFLTV; listed as Homo sapiens) [compound 321],+++ (50%-69% = +++),++ (20%-49% = ++)
315 (KLSWDLIYL; listed as Homo sapiens) [compound 315],++++ (≥70% = ++++),++ (20%-49% = ++)
308 (KLLSDPNYGV; listed as Homo sapiens) [compound 308],++++ (≥70% = ++++),+ (<20% = +)
262 (KLAVALLAA; listed as Homo sapiens) [compound 262],++ (20%-49% = ++),++ (20%-49% = ++)
241 (RLYTKLLNEA; listed as Homo sapiens) [compound 241],++++ (≥70% = ++++),+++ (50%-69% = +++)
328 (SLSQELVGV; listed as Homo sapiens) [compound 328],++ (20%-49% = ++),+ (<20% = +)
332 (AVVEFLTSV; listed as Homo sapiens) [compound 332],++ (20%-49% = ++),+ (<20% = +)
264 (KVFDEVIEV; listed as Homo sapiens) [compound 264],+ (<20% = +),+ (<20% = +)
243 (ALAGIVTNV; listed as Homo sapiens) [compound 243],++++ (≥70% = ++++),+ (<20% = +)
287 (KISDFGLATV; listed as Homo sapiens) [compound 287],++++ (≥70% = ++++),++ (20%-49% = ++)
336 (YVDPVITSI; listed as Homo sapiens) [compound 336],++++ (≥70% = ++++),++ (20%-49% = ++)
267 (LLTDNVVKL; listed as Homo sapiens) [compound 267],++++ (≥70% = ++++),+ (<20% = +)
